Test results as given in patent US20250275559A1, “SATURATED FATTY ACIDS AND THEIR USE TO MODIFY TASTE” (Firmenich Incorporated, priority 2022, published 2025).

How the values were obtained:
Format in all cases: cell-based
T2R54 (TAS2R39) = biological target: T1, T2R54 (TAS2R39) (Homo sapiens, UniProt P59534); assay: FLIPR calcium assay, block of bitter agonist response in cells transfected with T2R54; details: saturated fatty acid concentration of 200 μM
T1 construct: expressed in transfected cells; host or cells: cells expressing a promiscuous G protein (e.g., G16g44)
T1 sequence (P59534 1-338): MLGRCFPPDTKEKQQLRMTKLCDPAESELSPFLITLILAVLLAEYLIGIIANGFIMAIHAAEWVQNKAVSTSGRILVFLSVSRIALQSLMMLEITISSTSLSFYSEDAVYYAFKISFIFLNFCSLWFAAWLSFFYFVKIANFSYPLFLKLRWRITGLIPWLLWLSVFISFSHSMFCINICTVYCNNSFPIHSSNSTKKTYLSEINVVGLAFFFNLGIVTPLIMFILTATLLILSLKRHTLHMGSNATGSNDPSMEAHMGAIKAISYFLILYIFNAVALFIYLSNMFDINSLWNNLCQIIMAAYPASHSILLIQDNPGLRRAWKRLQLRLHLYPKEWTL
Protocol: (§1) Cells expressing a promiscuous […] (e.g., G16g44) were transfected with vectors encoding 5 functional bitter receptor cDNAs, with one receptor per transfection. The cells were transfected directly in 384-well format high-density plates and incubated for 28 hours. Later, cells were loaded with the Ca-specific dye Fluo4-AM. After an incubation of 60 minutes, excess dye is washed off, and cells are stimulated with various saturated fatty acids while simultaneously recording changes in intracellular fluorescence using a FLIPR instrument.
(§2) The above protocol was carried out using 13 different saturated fatty acids. […] Table 2 indicates the thirteen (13) compounds tested by their compound number from Table 1 above. The 6 bitter taste receptors are the human bitter taste receptors, that we named T2R01 (TAS2R01), T2R08 (TAS2R08), T2R10 (TAS2R10), T2R14 (TAS2R14), T2R54 (TAS2R39), and T2R75 (TAS2R46). The corresponding IUPHAR nomenclature for each receptor is given in parenthesis. In Table 2, these receptors are identified by the last two digits. For example, T2R01 is indicated as 01. Table 2 reports the percentage block of cellular response over baseline at a saturated fatty acid concentration of 200 μM.

T2R08 (TAS2R08) = biological target: T2, T2R08 (TAS2R08) (Homo sapiens, UniProt Q9NYW2); assay: FLIPR calcium assay, block of bitter agonist response in cells transfected with T2R08; details: saturated fatty acid concentration of 200 μM, read-out: percentage block of cellular response over baseline, 08
T2 construct: expressed in transfected cells; host or cells: cells expressing a promiscuous G protein (e.g., G16g44)
T2 sequence (Q9NYW2 1-309): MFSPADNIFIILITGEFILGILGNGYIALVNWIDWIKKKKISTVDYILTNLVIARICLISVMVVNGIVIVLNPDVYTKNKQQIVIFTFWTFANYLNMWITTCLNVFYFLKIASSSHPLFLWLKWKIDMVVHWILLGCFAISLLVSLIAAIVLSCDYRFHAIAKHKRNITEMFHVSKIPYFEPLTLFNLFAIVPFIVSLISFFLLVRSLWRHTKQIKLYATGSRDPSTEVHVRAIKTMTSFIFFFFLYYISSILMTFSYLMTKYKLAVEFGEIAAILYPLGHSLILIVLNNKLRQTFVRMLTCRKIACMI
Protocol: as §1, with “instrument. Bitter agonist and responding receptors were identified.” for “instrument.”
as §2, with “acids. A particular T2R receptor was identified as being antagonized by a particular saturated fatty acid if it triggered a >25% block of agonist's cellular response at 200 µM concentration of saturated fatty acid.” for “acids.”

T2R01 (TAS2R01) = biological target: T3, T2R01 (TAS2R01) (Homo sapiens, UniProt Q9NYW7); assay: FLIPR calcium assay, block of bitter agonist response in cells transfected with T2R01; details: saturated fatty acid concentration of 200 μM, read-out: percentage block of cellular response over baseline, 01
T3 construct: expressed in transfected cells; host or cells: cells expressing a promiscuous G protein (e.g., G16g44)
T3 sequence (Q9NYW7 1-299): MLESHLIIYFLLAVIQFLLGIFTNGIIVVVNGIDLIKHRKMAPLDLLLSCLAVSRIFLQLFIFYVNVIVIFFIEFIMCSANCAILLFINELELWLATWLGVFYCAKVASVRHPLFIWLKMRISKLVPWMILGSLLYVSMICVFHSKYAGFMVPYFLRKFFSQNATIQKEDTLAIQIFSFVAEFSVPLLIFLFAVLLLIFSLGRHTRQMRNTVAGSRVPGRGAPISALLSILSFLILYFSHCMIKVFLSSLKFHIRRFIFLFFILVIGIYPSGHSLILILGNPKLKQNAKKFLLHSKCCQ
Protocol: as §1, §2

T2R75 (TAS2R46) = biological target: T4, T2R75 (TAS2R46) (Homo sapiens, UniProt P59540); assay: FLIPR calcium assay, block of bitter agonist response in cells transfected with T2R75; details: saturated fatty acid concentration of 200 μM
T4 construct: expressed in transfected cells; host or cells: cells expressing a promiscuous G protein (e.g., G16g44)
T4 sequence (P59540 1-309): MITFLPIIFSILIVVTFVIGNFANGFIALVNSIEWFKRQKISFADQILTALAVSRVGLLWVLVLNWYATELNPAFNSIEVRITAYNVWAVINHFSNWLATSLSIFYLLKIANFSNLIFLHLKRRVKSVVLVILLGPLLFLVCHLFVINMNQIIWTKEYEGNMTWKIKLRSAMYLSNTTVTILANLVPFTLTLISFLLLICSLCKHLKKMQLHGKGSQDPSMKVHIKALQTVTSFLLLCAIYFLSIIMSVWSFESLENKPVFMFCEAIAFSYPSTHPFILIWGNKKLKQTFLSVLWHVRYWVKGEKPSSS
Protocol: as §1, §2

T2R10 (TAS2R10) = biological target: T5, T2R10 (TAS2R10) (Homo sapiens, UniProt Q9NYW0); assay: FLIPR calcium assay, block of bitter agonist response in cells transfected with T2R10; details: saturated fatty acid concentration of 200 μM, read-out: percentage block of cellular response over baseline, 10
T5 construct: expressed in transfected cells; host or cells: cells expressing a promiscuous G protein (e.g., G16g44)
T5 sequence (Q9NYW0 1-307): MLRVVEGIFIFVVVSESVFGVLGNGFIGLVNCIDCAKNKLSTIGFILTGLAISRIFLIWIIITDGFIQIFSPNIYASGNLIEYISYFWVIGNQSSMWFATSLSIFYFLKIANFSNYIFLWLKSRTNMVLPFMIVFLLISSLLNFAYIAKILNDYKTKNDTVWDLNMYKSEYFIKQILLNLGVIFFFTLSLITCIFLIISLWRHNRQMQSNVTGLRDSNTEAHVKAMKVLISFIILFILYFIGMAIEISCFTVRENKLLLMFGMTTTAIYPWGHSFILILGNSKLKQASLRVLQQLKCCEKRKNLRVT
Protocol: as §1, §2

T2R14 (TAS2R14) = biological target: T6, T2R14 (TAS2R14) (Homo sapiens, UniProt Q9NYV8); assay: FLIPR calcium assay, block of bitter agonist response in cells transfected with T2R14; details: saturated fatty acid concentration of 200 μM
T6 construct: expressed in transfected cells; host or cells: cells expressing a promiscuous G protein (e.g., G16g44)
T6 sequence (Q9NYV8 1-317): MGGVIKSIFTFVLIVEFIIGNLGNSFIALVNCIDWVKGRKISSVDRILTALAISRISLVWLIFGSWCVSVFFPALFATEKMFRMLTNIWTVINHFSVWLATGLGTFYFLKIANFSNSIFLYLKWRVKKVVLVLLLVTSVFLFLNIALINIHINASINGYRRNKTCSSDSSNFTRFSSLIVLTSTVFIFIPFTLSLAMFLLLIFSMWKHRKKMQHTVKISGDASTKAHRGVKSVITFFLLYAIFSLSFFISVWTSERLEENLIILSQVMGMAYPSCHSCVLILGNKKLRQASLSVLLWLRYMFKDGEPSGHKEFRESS
Protocol: as §1, §2

percentage block of cellular response over baseline, 54 (T2R54 (TAS2R39)) [%]	inhibition at 200 µM (T2R08 (TAS2R08)) [%]	inhibition at 200 µM (T2R01 (TAS2R01)) [%]	percentage block of cellular response over baseline, 75 (T2R75 (TAS2R46)) [%]	inhibition at 200 µM (T2R10 (TAS2R10)) [%]	percentage block of cellular response over baseline, 14 (T2R14 (TAS2R14)) [%]	SMILES
65	25	–	–	–	–	CCCCCCC(=O)O [Compound 101, Heptanoic acid (Enanthic acid)]
90	–	> 30	30	40	>25	CCCCCCCC(=O)O [Compound 102, Octanoic acid (Caprylic acid)]
>75	> 65	> 75	>50	> 95	>55	CCCCCCCCCC(=O)O [Compound 104, Decanoic acid (Capric acid)]
–	–	> 75	–	> 95	>85	CCCCCCCCCCC(=O)O [Compound 105, Undecanoic acid]
–	40	> 35	–	> 85	65	CCCCCCCCCCCC(=O)O [Compound 106, Dodecanoic acid (Lauric acid)]
–	–	–	–	–	>25	CCCCCCCCCCCCC(=O)O [Compound 107, Tridecanoic acid]
50	–	–	–	–	–	CCCCC(C)C(=O)O (stereo not drawn) [Compound 114, 2-Methylhexanoic acid]
50	–	–	–	–	–	CCCCC(CC)C(=O)O (stereo not drawn) [Compound 115, 2-Ethylhexanoic acid]
80	30	–	–	30	–	CCCCCC(C)C(=O)O (stereo not drawn) [Compound 117, 2-Methylheptanoic acid]
–	45	40	–	> 60	–	CCCCC(C)CCC(=O)O (stereo not drawn) [Compound 119, 4-Methyloctanoic acid]
95	> 25	> 30	25	> 50	–	CCCCC(CC)CCC(=O)O (stereo not drawn) [Compound 120, 4-Ethyloctanoic acid]
–	> 55	> 50	–	> 85	>40	CCCCCC(C)CCC(=O)O (stereo not drawn) [Compound 121, 4-Methylnonanoic acid]

SMILES	percentage block of cellular response over baseline, 54 (T2R54 (TAS2R39)) [%]	inhibition at 200 µM (T2R08 (TAS2R08)) [%]	inhibition at 200 µM (T2R01 (TAS2R01)) [%]	percentage block of cellular response over baseline, 75 (T2R75 (TAS2R46)) [%]	inhibition at 200 µM (T2R10 (TAS2R10)) [%]	percentage block of cellular response over baseline, 14 (T2R14 (TAS2R14)) [%]
CCCCCCCCC(=O)O [Compound 103, Nonanoic acid (Pelargonic acid)]	–	> 50	> 50	–	> 70	>35
